# Read-outs that look alike come from different tables or passages of the source.
# What was measured:
# [1] = tested on: barnyardgrass (Echinochloa oryzicola vasing); experiment: Growth inhibition of barnyardgrass in paddy soil pots, application under submerged condition, visual rating (observed value) and Colby expected value; format: in vivo; conditions: for inhibition at 225 g/ha: read-out: Growth inhibition rate (%) Observed, 2.25 g/a
# Text: (§1) When the herbicidal activity in a case where two active ingredients are combined, is larger than the simple sum of the respective herbicidal activities of the two active ingredients (the expected activity), it is called a synergistic effect. The activity expected by the combination of two active ingredients can be calculated as follows (Colby S. R., “Weed”, vol. 15, p. 20-22, 1967). E=p+q−(p×q÷100) where p: growth inhibition rate when treated with x (g/a) of herbicide X,
# (§2) q: growth inhibition rate when treated with y (g/a) of herbicide Y,
# (§3) E: growth inhibition rate expected when treated with x (g/a) of herbicide X and y (g/a) of herbicide Y.
# (§4) Namely, when the actual growth inhibition rate (observed value) is larger than the growth inhibition rate by the above calculation (expected value), the activity by the combination can be regarded as showing a synergistic effect.
# Paddy field soil was put into a 1/10,000 are pot, and seeds of barnyardgrass (Echinochloa oryzicola vasing) were sown and left to stand under an irrigated condition with a water depth of 3.5 cm. When barnyardgrass reached 2.0 to 2.5 leaf stage, wettable powders of compound A2 and compound (B1.1) were, respectively, diluted with water and applied under submerged condition so that the active ingredients became the prescribed amounts, respectively. The state of growth was visually observed 21 days after application, and the growth inhibition rate (%) evaluated in accordance with the following evaluation standard (observed value) and the growth inhibition rate (%) calculated by the above-mentioned Colby method (expected value) are shown in Table 1.
# (§5) Growth inhibition rate (%)=0% (equivalent to the non-treated area) to 100% (complete kill)
# (§6) Paddy field soil was put into a 1/10,000 are pot, and seeds of barnyardgrass (Echinochloa oryzicola vasing) were sown and left to stand under an irrigated condition with a water depth of 3.5 cm. When barnyardgrass reached 2.0 to 2.5 leaf stage, wettable powders of compound A2 and compound (B2.1) were, respectively, diluted with water and applied under submerged condition so that the active ingredients became the prescribed amounts, respectively. The state of growth was visually observed 21 days after application, and evaluation and calculation were carried out in the same manner as in the above Test Example 1.
# as §6, with “leaf stage, a wettable powder” for “leaf stage, wettable powders”, “a wettable powder of compound” for “stage, wettable powders of compound”, “A2 and an emulsifiable concentrate of compound (B3.1)” for “A2 and compound (B2.1)”, “of compound (B3.1) were, respectively,” for “and compound (B2.1) were, respectively,”
# as §6, with “(B4.1)” for “(B2.1)”
# Paddy field soil was put into a 1/10,000 are pot, and seeds of barnyardgrass (Echinochloa oryzicola vasing) were sown and left to stand under an irrigated condition with a water depth of 3.5 cm. […]
# [2] = tested on: Japanese bulrush (Scirpus juncoides); experiment: Growth inhibition of Japanese bulrush in paddy soil pots, application under submerged condition, visual rating and Colby expected value; format: in vivo
# Text: as §1, §2, §3, §4, §5
# (§7) Paddy field soil was put into a 1/10,000 are pot, and seeds of Japanese bulrush (Scirpus juncoides) were sown and left to stand under an irrigated condition with a water depth of 3.5 cm. When Japanese bulrush reached 2.3 to 2.6 leaf stage, a wettable powder of compound A2 and granules of compound (B7.1) were, respectively, diluted with water and applied under submerged condition so that the active ingredients became the prescribed amounts, respectively. The state of growth was visually observed 10 days after application, and evaluation and calculation were carried out in the same manner as in the above Test Example 1.
# as §7, with “an emulsifiable concentrate” for “granules”, “(B3.1)” for “(B7.1)”
# (§8) Paddy field soil was put into a 1/10,000 are pot, and seeds of Japanese bulrush (Scirpus juncoides) were sown and left to stand under an irrigated condition with a water depth of 3.5 cm. When Japanese bulrush reached 2 leaf stage, wettable powders of compound A2, C2 and C4 and granules of compound C6 were, respectively, diluted with water and applied under submerged condition so that the active ingredients became the prescribed amounts, respectively.
# Paddy field soil was put into a 1/10,000 are pot, and seeds of Japanese bulrush (Scirpus juncoides) were sown and left to stand under an irrigated condition with a water depth of 3.5 cm. When Japanese bulrush reached 2 leaf stage, wettable powders of compound A2, C2 and C4 and granules of compound C6 were, respectively, diluted with water and applied under submerged condition so that the active ingredients became the prescribed amounts, respectively. The state of growth was visually observed 19 days after application, and the growth inhibition rate (%) evaluated in the same manner as in the above Test Example 1 (observed value) and the growth inhibition rate (%) calculated by the above-mentioned Colby method (expected value) are shown in Tables 36, 37 and 38.
# as §8, with “3” for “2”, “A2” for “A2, C2”, “and” for “and C4 and granules of”, “(D2.2)” for “C6”, “respectively. […]” for “respectively.”
# [3] = 0.5 g/a, 2 leaf stage, 19 days after application, Test Example 33
# [4] = 1.0 g/a, 2 leaf stage, 19 days after application, Test Example 33
# [5] = 1.5 g/a, 2 leaf stage, 19 days after application, Test Example 34
# [6] = 2.0 g/a, 2 leaf stage, 19 days after application, Test Example 33
# [7] = 3.75 g/a, 2 leaf stage, 19 days after application, Test Example 34
# [8] = 10 g/a, 2 leaf stage, 19 days after application, Test Example 34
smiles,measurement,setting,value
"CCNc1nc(NCC)nc(SC)n1 [Compound (B5.1), simetryn]",inhibition at 169 g/ha,"[1]; Echinochloa oryzicola, soil, 504 h, read-out: Growth inhibition rate (%) Observed, 1.69 g/a, 1.0 to 3.0 leaf stage, 21 days after application",3%
same,inhibition at 225 g/ha,"[1]; Echinochloa oryzicola, soil, 504 h, 2.0 to 2.5 leaf stage, 21 days after application",2%
same,inhibition at 338 g/ha,"[1]; Echinochloa oryzicola, soil, 504 h, read-out: Growth inhibition rate (%) Observed, 3.38 g/a, 1.0 to 3.0 leaf stage, 21 days after application",10%
same,inhibition at 450 g/ha,"[1]; Echinochloa oryzicola, soil, 504 h, read-out: Growth inhibition rate (%) Observed, 4.5 g/a, 2.0 to 2.5 leaf stage, 21 days after application",5%
same,inhibition at 225 g/ha,"[1]; Echinochloa oryzicola, soil, 696 h, 2.4 to 3.2 leaf stage, 29 days after application, Test Example 45",5%
same,inhibition at 450 g/ha,"[2]; Schoenoplectiella juncoides, soil, 696 h, read-out: Growth inhibition rate (%) Observed",25%
"CC(C)N1C(=O)c2ccccc2NS1(=O)=O [Compound (B7.1), bentazone]",inhibition at 3300 g/ha,"[1]; Echinochloa oryzicola, soil, 504 h, 33 g/a, 3.0 to 3.3 leaf stage, 21 days after application, read-out: Growth inhibition rate (%) Observed",0%
same,inhibition at 4400 g/ha,"[1]; Echinochloa oryzicola, soil, 504 h, 44 g/a, 3.0 to 3.3 leaf stage, 21 days after application, read-out: Growth inhibition rate (%) Observed",0%
same,inhibition at 413 g/ha,"[2]; Schoenoplectiella juncoides, soil, 240 h, 4.13 g/a, 2.3 to 2.6 leaf stage, 10 days after application, read-out: Growth inhibition rate (%) Observed",10%
same,inhibition at 825 g/ha,"[2]; Schoenoplectiella juncoides, soil, 240 h, 8.25 g/a, 2.3 to 2.6 leaf stage, 10 days after application, read-out: Growth inhibition rate (%) Observed",10%
same,inhibition at 1650 g/ha,"[2]; Schoenoplectiella juncoides, soil, 240 h, 16.5 g/a, 2.3 to 2.6 leaf stage, 10 days after application, read-out: Growth inhibition rate (%) Observed",13%
same,inhibition at 750 g/ha,"[2]; Schoenoplectiella juncoides, soil, 504 h, 7.5 g/a, 3.8 to 4.2 leaf stage, 21 days after application, Test Example 61, read-out: Growth inhibition rate (%) Observed",98%
"CCOC(=O)COc1ccc(Cl)cc1C [Compound C2, MCP ethyl]",Growth inhibition rate (%) Observed,[2]; [3],13%
same,Growth inhibition rate (%) Observed,[2]; [4],23%
same,Growth inhibition rate (%) Observed,[2]; [5],20%
same,Growth inhibition rate (%) Observed,[2]; [6],35%
same,Growth inhibition rate (%) Observed,[2]; [7],45%
same,Growth inhibition rate (%) Observed,[2]; [8],68%
"CCOC(=O)COc1ccc(Cl)cc1Cl [Compound C6, 2,4-D ethyl]",Growth inhibition rate (%) Observed,[2]; [3],23%
same,Growth inhibition rate (%) Observed,[2]; [4],33%
same,Growth inhibition rate (%) Observed,[2]; [5],20%
same,Growth inhibition rate (%) Observed,[2]; [6],53%
same,Growth inhibition rate (%) Observed,[2]; [7],45%
same,Growth inhibition rate (%) Observed,[2]; [8],68%
COc1cc(OC)nc(NC(=O)NS(=O)(=O)c2cccnc2C(O)C(C)F)n1 (stereo not shown) [Compound A1],Growth inhibition rate (%) Observed,"[1]; 0.083 g/a, 1.0 to 3.0 leaf stage, 21 days after application",83%
same,Growth inhibition rate (%) Observed,"[1]; 0.083 g/a, 2.8 to 3.2 leaf stage, 19 days after application, Test Examples 62-65",55%
same,Growth inhibition rate (%) Observed,"[1]; 0.083 g/a, 2.8 to 3.2 leaf stage, 21 days after application, Test Examples 39-43",57%
same,Growth inhibition rate (%) Observed,"[1]; 0.083 g/a, 2.8 to 3.4 leaf stage, 14 days after application, Test Examples 66-72",40%
same,Growth inhibition rate (%) Observed,"[1]; 0.083 g/a, 3.0 to 3.3 leaf stage, 21 days after application",43%
same,Growth inhibition rate (%) Observed,"[1]; 0.11 g/a, 1.0 to 3.0 leaf stage, 21 days after application",97%
same,Growth inhibition rate (%) Observed,"[1]; 0.11 g/a, 2.8 to 3.2 leaf stage, 19 days after application, Test Examples 62-65",93%
same,Growth inhibition rate (%) Observed,"[1]; 0.11 g/a, 2.8 to 3.2 leaf stage, 21 days after application, Test Examples 39-43",67%
same,Growth inhibition rate (%) Observed,"[1]; 0.11 g/a, 2.8 to 3.4 leaf stage, 14 days after application, Test Examples 66-72",53%
same,Growth inhibition rate (%) Observed,"[1]; 0.11 g/a, 3.0 to 3.3 leaf stage, 21 days after application",60%
same,Growth inhibition rate (%) Observed,"[1]; 0.165 g/a, 1.0 to 3.0 leaf stage, 21 days after application",98%
same,Growth inhibition rate (%) Observed,"[1]; 0.165 g/a, 2.8 to 3.2 leaf stage, 19 days after application, Test Examples 62-65",94%
same,Growth inhibition rate (%) Observed,"[1]; 0.165 g/a, 2.8 to 3.2 leaf stage, 21 days after application, Test Examples 39-43",78%
same,Growth inhibition rate (%) Observed,"[1]; 0.165 g/a, 2.8 to 3.4 leaf stage, 14 days after application, Test Examples 66-72",70%
same,Growth inhibition rate (%) Observed,"[1]; 0.165 g/a, 3.0 to 3.3 leaf stage, 21 days after application",75%
same,Growth inhibition rate (%) Observed,"[2]; 0.11 g/a, 3.8 to 4.2 leaf stage, 21 days after application, Test Example 61",65%

# — patent US20070232492A1, “Herbicidal Composition” (Ishihara Sangyo Kaisha, LTD., priority 2004, published 2007)
